From ChEMBL document CHEMBL1132094, “Human telomerase inhibition by substituted acridine derivatives” (Bioorg Med Chem Lett, 1999) come the findings set out here.

Usually IC50 stands for the concentration that gives 50% inhibition. Read a high IC50 as weaker potency.

Molecules are shown by their SMILES. Activity calls are given as the source filed them. No cut-off for these calls is given here.

In one assay the test system is A2780. Kind of assay: In vitro cytotoxicity against human ovarian carcinoma cell line A2780 using sulforhodamine B (SRB) assay. Format: functional, cell-based. A general note: In SRB staining, fixed cells bind dye roughly in proportion to their protein.
The subject of another assay is CH1. Briefly: In vitro cytotoxicity against human ovarian carcinoma cell line CH1 using sulforhodamine B (SRB) assay. Format: functional, cell-based.
The target of assay [1] is DNA polymerase I, thermostable (Thermus aquaticus) (UniProt P19821). Kind of assay: Ability to inhibit Taq polymerase in vitro at a concentration of 10 uM; NI means No inhibition.
DNA polymerase I, thermostable (Thermus aquaticus), sequence (P19821 whole entry): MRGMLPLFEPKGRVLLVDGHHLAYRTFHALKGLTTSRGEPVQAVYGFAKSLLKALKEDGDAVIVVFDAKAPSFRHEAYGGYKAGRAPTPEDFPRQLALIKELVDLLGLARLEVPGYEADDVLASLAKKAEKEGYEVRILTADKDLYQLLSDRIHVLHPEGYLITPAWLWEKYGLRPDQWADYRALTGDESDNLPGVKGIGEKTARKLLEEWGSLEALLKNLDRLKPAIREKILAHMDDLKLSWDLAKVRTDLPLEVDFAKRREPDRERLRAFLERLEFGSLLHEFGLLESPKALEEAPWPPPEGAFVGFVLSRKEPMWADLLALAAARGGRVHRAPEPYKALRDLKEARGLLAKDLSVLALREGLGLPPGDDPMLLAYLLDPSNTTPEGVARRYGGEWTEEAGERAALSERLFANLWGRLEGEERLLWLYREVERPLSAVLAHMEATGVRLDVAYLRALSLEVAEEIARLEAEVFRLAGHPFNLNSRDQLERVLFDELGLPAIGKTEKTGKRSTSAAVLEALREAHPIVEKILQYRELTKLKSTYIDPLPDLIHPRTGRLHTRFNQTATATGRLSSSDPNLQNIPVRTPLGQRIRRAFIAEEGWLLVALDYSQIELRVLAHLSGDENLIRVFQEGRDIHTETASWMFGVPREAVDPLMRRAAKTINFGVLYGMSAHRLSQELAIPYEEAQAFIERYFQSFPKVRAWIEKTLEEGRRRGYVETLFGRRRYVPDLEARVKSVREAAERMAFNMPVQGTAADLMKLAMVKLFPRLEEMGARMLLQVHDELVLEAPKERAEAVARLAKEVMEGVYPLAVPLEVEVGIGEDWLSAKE
Assay [2] has the same target. Briefly: Ability to inhibit Taq polymerase in vitro at a concentration of 20 uM; NI means No inhibition.
Assay [3] has the same target. Briefly: Ability to inhibit Taq polymerase in vitro at a concentration of 50 uM; NI means No inhibition.
Assay [4] concerns the target Telomerase reverse transcriptase (Homo sapiens, UniProt O14746). Kind of assay: Ability to inhibit human telomerase in a modified cell-free TRAP assay using extracts from A2780 cell line.
The subject of another assay is SK-OV-3. Briefly: In vitro cytotoxicity against human ovarian carcinoma cell line SKOV-3 using sulforhodamine B (SRB) assay. Format: functional, cell-based.

Telomerase reverse transcriptase, sequence (O14746 whole entry): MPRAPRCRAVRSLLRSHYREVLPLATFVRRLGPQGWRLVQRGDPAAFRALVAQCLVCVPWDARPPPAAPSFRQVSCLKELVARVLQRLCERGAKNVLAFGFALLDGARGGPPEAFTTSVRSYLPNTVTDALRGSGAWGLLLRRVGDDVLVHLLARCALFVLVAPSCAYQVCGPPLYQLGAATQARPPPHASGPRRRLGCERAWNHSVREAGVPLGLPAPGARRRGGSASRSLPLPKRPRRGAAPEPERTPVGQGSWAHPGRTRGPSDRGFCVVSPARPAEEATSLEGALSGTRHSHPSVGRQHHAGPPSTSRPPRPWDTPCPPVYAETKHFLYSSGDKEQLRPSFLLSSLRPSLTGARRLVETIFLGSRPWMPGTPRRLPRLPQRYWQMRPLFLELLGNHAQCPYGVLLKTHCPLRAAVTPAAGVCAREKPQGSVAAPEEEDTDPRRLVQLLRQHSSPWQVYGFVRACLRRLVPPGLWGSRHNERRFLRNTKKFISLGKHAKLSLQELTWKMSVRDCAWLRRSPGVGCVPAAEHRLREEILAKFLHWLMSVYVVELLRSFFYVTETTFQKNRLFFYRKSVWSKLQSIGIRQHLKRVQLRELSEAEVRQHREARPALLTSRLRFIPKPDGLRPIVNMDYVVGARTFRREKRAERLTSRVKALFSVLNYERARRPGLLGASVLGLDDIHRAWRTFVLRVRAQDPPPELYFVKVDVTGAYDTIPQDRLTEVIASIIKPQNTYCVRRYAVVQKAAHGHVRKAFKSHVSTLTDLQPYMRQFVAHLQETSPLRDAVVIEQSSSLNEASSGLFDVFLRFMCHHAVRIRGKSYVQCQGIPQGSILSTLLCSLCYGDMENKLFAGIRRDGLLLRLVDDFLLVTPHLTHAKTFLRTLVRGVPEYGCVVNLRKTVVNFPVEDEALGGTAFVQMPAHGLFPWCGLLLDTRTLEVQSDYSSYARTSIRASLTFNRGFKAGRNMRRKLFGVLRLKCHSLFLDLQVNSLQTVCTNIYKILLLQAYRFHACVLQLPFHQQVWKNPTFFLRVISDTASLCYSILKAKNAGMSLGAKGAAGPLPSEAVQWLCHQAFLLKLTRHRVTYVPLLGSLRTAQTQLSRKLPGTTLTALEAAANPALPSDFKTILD

Take `O=C(CCN1CCCC1)Nc1ccc2cc3ccc(NC(=O)CCN4CCCC4)cc3nc2c1`: the IC50 with A2780 worked out at 2650 nM; in the assay with CH1, 8200 nM; in assay [4], 5200 nM; in the assay on SK-OV-3 it was 2600 nM. Besides, the inhibition entry in assay [1], in assay [2] and in assay [3] was “inactive” throughout.
Turning to `O=C(CCN1CCCCCCC1)Nc1ccc2cc3ccc(NC(=O)CCN4CCCCCCC4)cc3nc2c1`, the half-maximal inhibitory concentration (IC50) is 1300 nM in the assay on A2780, 2200 nM with CH1, over 50000 nM in assay [4] and 2300 nM in the assay on SK-OV-3. The inhibition result in assay [1], in assay [2] and in assay [3] was “inactive” each time.
Consider `CC1CCCCN1CCC(=O)Nc1ccc2cc3ccc(NC(=O)CCN4CCCCC4C)cc3nc2c1` (configuration not stated), for which the IC50 in the assay on A2780 was 1750 nM; in the assay on CH1 it was 2300 nM; in assay [4] it was 2600 nM; in the assay with SK-OV-3, 3400 nM. Moreover, the inhibition result in assay [1], in assay [2] and in assay [3] was “inactive” throughout.
With `O=C(CCN1CCC(Cc2ccccc2)CC1)Nc1ccc2cc3ccc(NC(=O)CCN4CCC(Cc5ccccc5)CC4)cc3nc2c1`, the IC50 was 310 nM in the assay on A2780, 110 nM with CH1, over 50000 nM in assay [4] and 880 nM in the assay with SK-OV-3. The inhibition result in assay [1], in assay [2] and in assay [3] was “inactive” throughout.
Regarding `O=C(CCN1CCCCCC1)Nc1ccc2cc3ccc(NC(=O)CCN4CCCCCC4)cc3nc2c1`, the concentration for half-maximal inhibition (IC50) in the assay with A2780 was 1100 nM; in the assay with CH1 it was 1850 nM; in assay [4] it was 3100 nM; with SK-OV-3 it was 2500 nM. Moreover, the inhibition entry in assay [1], in assay [2] and in assay [3] was “inactive” each time.
As for `O=C(CCN1CCOCC1)Nc1ccc2cc3ccc(NC(=O)CCN4CCOCC4)cc3nc2c1`, the 50% inhibitory concentration (IC50) in the assay with A2780 was 3100 nM; with CH1, 15000 nM; in assay [4], over 50000 nM; in the assay with SK-OV-3 it was 13000 nM. Also, the inhibition result in assay [1], in assay [2] and in assay [3] was “inactive” throughout.
`CC1CCCN(CCC(=O)Nc2ccc3cc4ccc(NC(=O)CCN5CCCC(C)C5)cc4nc3c2)C1` (configuration not stated): the half-maximal inhibitory concentration (IC50) with A2780 was determined as 2100 nM; in the assay on CH1, 2200 nM; in assay [4], 4400 nM; in the assay with SK-OV-3 it was 2850 nM. Besides, the inhibition result in assay [1], in assay [2] and in assay [3] was “inactive” throughout.
In the case of `O=C(CCN1CCCCC1CO)Nc1ccc2cc3ccc(NC(=O)CCN4CCCCC4CO)cc3nc2c1` (configuration not stated), the 50% inhibitory concentration (IC50) was 2300 nM in the assay with A2780, 10500 nM with CH1, 5400 nM in assay [4] and 7000 nM with SK-OV-3. Moreover, the inhibition result in assay [1], in assay [2] and in assay [3] was “inactive” in each case.
With `O=C(CCN1CCCCC1CCO)Nc1ccc2cc3ccc(NC(=O)CCN4CCCCC4CCO)cc3nc2c1` (configuration not stated), the IC50 turned out to be 3200 nM with A2780, 11000 nM in the assay on CH1, 4100 nM in assay [4] and 10500 nM in the assay on SK-OV-3. The inhibition entry in assay [1], in assay [2] and in assay [3] was “inactive” each time.
Turning to `O=C(CCN1CCC(O)CC1)Nc1ccc2cc3ccc(NC(=O)CCN4CCC(O)CC4)cc3nc2c1`, the IC50 with A2780 came out at 6200 nM; with CH1, 15000 nM; in assay [4], 8000 nM; in the assay on SK-OV-3, 13000 nM. Besides, the inhibition entry in assay [1], in assay [2] and in assay [3] was “inactive” each time.
As to `CCC1CCCCN1CCC(=O)Nc1ccc2cc3ccc(NC(=O)CCN4CCCCC4CC)cc3nc2c1` (configuration not stated), the concentration for half-maximal inhibition (IC50) in the assay with A2780 was determined as 2200 nM; with CH1, 2200 nM; in assay [4] it was 2700 nM; in the assay on SK-OV-3, 3900 nM. For the same molecule, the inhibition entry in assay [1], in assay [2] and in assay [3] was “inactive” in each case.
As for `O=C(CCN1CCCCC1)Nc1ccc2cc3ccc(NC(=O)CCN4CCCCC4)cc3nc2c1`, the 50% inhibitory concentration (IC50) in the assay with A2780 came out at 1700 nM; in the assay with CH1 it was 2250 nM; in assay [4], 2800 nM; in the assay with SK-OV-3, 540 nM. Besides, the inhibition entry in assay [1], in assay [2] and in assay [3] was “inactive” each time.
`CCN(CC)CCC(=O)Nc1ccc2cc3ccc(NC(=O)CCN(CC)CC)cc3nc2c1`: the 50% inhibitory concentration (IC50) in the assay on A2780 was 570 nM; in the assay with CH1, 2450 nM; in assay [4] it was 5800 nM; with SK-OV-3, 2250 nM. Further, the inhibition result in assay [1], in assay [2] and in assay [3] was “inactive” each time.
For `CN(C)CCC(=O)Nc1ccc2cc3ccc(NC(=O)CCN(C)C)cc3nc2c1`, the IC50 in the assay on A2780 worked out at 750 nM; in the assay on CH1, 9800 nM; in assay [4] it was 8200 nM; in the assay on SK-OV-3, 2500 nM. Further, the inhibition entry in assay [1], in assay [2] and in assay [3] was “inactive” in each case.
For `CC1CCN(CCC(=O)Nc2ccc3cc4ccc(NC(=O)CCN5CCC(C)CC5)cc4nc3c2)CC1`, the concentration for half-maximal inhibition (IC50) came out at 2150 nM with A2780, 2050 nM in the assay with CH1, 1350 nM in assay [4] and 2400 nM in the assay with SK-OV-3. Further, the inhibition entry in assay [1], in assay [2] and in assay [3] was “inactive” each time.
On to `CC1(C)CC2CC(C)(CN2CCC(=O)Nc2ccc3cc4ccc(NC(=O)CCN5CC6(C)CC5CC(C)(C)C6)cc4nc3c2)C1`, for which the IC50 in the assay with A2780 is 500 nM; in the assay with CH1 it was 540 nM; in assay [4] it was over 50000 nM; with SK-OV-3, 2200 nM. The inhibition entry in assay [1], in assay [2] and in assay [3] was “inactive” in each case.
